# Reference: US20260234161A1, “RIFABUTIN ANALOGS FOR THE TREATMENT OF BACTERIAL DISEASES” (BIOVERSYS AG, priority 2023, published 2026)
# Key:
# Format in all cases: cell-based
# [1] = tested on: M. kansasii (ATCC 12478); assay: MIC by broth microdilution, M. kansasii; settings: Mycobacterium kansasii, ATCC12478, 168 h, cation adjusted Mueller Hinton broth + ADC (5%), 37° C., 7 days (at least)
# Protocol: (§1) MIC values were determined by broth microdilution method according to the CLSI guidelines with the following exceptions: MIC against A. baumannii was performed in RPMI medium supplemented with 10% FCS and MIC against M. abscessus was performed in Middlebrook 7H9 broth supplemented with Middlebrook ADC growth supplement (10%; see column “M. abscessus 7H9”). MIC forM abscessus was determined a second time in standard cation adjusted Mueller Hinton broth without growth supplement (see colum “M. abscessus MH”). All other MIC were performed in standard cation adjusted Mueller Hinton broth, supplemented with Middlebrook ADC growth supplement (5%) for the slow growing mycobacteria (M. xenopi, M. kansasii and M. avium).
# (§2) The following procedure applies to all species tested, except forM xenopi. From a fresh culture plate (from overnight to several days depending on the bacteria), cells were resuspended in 0.9% (w/v) saline solution and bacterial inoculum was prepared in the respective testing medium with 5×10^5 CFU/mL. For M. xenopi, the inoculum was prepared from a fresh liquid culture (7H9+ADC). The appropriate volumes of a 10 mg/mL compound solution were directly dispensed in the 96-well assay plate using a digital dispenser to create two-fold dilution series from 32 to 0.002 μg/mL final concentration for A. baumannii and S. aureus; from 16 to 0.016 μg/mL for M. abscessus and M. avium; and from 1 to 6×10^−5 μg/mL for M. kansasii and M. xenopi. 100 μL of bacterial suspension was finally added to the compounds. Plates were covered and incubated without shaking at 35° C. for 20 hours for A. baumanii and S. aureus; at 30° C. for 4 days for M. abscessus; and at 37° C. for 7 days (at least) for M. kansasii (covered with aluminum foil to avoid light exposure), M. avium and M. xenopi. Every experiment contained an antibiotic as quality control. MIC was determined visually as the lowest concentration of a compound that prevents visible growth of the bacteria.
# (§3) The in vitro activity of compounds described herein was determined against S. aureus (UAMS-1625 strain), A. baumannii (HUMC1 strain), M. abscessus (ATCC 19977), M. kansasii (ATCC 12478), M. avium (ATCC 25291), and M. xenopi (ATCC 19250).
# [2] = tested on: M. xenopi (ATCC 19250); assay: MIC by broth microdilution, M. xenopi; settings: Mycobacterium xenopi, ATCC19250, 168 h, cation adjusted Mueller Hinton broth + ADC (5%), 37° C., 7 days (at least)
# Protocol: as §1, §2, §3
# [3] = tested on: M. avium (ATCC 25291); assay: MIC by broth microdilution, M. avium; settings: Mycobacterium avium, ATCC25291, 168 h, cation adjusted Mueller Hinton broth + ADC (5%), 37° C., 7 days (at least)
# Protocol: as §1, §2, §3
# [4] = tested on: A. baumannii (HUMC1 strain); assay: MIC by broth microdilution, A. baumannii (RPMI + 10% FCS); settings: Acinetobacter baumannii; HUMC1 strain; RPMI medium + 10% FCS; 35° C., 20 hours; read-out: MIC A. baumannii
# [5] = tested on: S. aureus (UAMS-1625 strain); assay: MIC by broth microdilution, S. aureus; settings: Staphylococcus aureus, 20 h, read-out: MIC S. aureus
# Outline: (§4)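 CLSI broth microdilution in cation-adjusted Mueller Hinton broth, 5×10^5 CFU/mL inoculum; ADC (5%) added for M. avium and M. xenopi (M. xenopi inoculum from 7H9+ADC liquid culture). Two-fold series 16–0.016 μg/mL (M. abscessus, M. avium), 1–6×10^−5 μg/mL (M. xenopi); S. aureus 35° C 20 h, M. abscessus 30° C 4 days, others 37° C ≥7 days; MIC = lowest concentration without visible growth.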
# [6] = tested on: M. abscessus (ATCC 19977); assay: MIC by broth microdilution, M. abscessus in cation adjusted Mueller Hinton broth; settings: Mycobacteroides abscessus, ATCC19977, 96 h; ATCC 19977; cation adjusted Mueller Hinton broth without growth supplement; 30° C., 4 days; read-out: MIC M. abscessus MH
# Outline: as §4
# [7] = tested on: M. abscessus (ATCC 19977); assay: MIC by broth microdilution, M. abscessus in Middlebrook 7H9 broth + ADC; settings: Mycobacteroides abscessus, ATCC19977, 96 h; ATCC 19977; Middlebrook 7H9 broth + ADC growth supplement (10%); 30° C., 4 days; read-out: MIC M. abscessus 7H9
# Protocol: as §1, §2, §3
Compound,MIC [1] [µg/mL],MIC [2] [µg/mL],MIC [3] [µg/mL],MIC [4] [µg/mL],MIC [5] [µg/mL],MIC [6] [µg/mL],MIC [7] [µg/mL]
CO[C@H]1/C=C/O[C@@]2(C)Oc3c(C)c(O)c4c(c3C2=O)C2=NC3(CCN(CC(C)C)CC3)NC2=C(NC(=O)/C(C)=C\C=C\[C@H](C)[C@H](O)[C@@H](C)[C@@H](O)[C@@H](C)[C@H](OC(=O)N2CCN(c3ccccc3)CC2)[C@@H]1C)C4=O [Compound 7],0.001,0.008,0.25,0.125,0.5,0.5,0.125
CO[C@H]1/C=C/O[C@@]2(C)Oc3c(C)c(O)c4c(c3C2=O)C2=NC3(CCN(CC(C)C)CC3)NC2=C(NC(=O)/C(C)=C\C=C\[C@H](C)[C@H](O)[C@@H](C)[C@@H](O)[C@@H](C)[C@H](OC(=O)N2CCN(c3ccccn3)CC2)[C@@H]1C)C4=O [Compound 8],0.0005,0.008,0.25,0.25,0.25,0.5,0.125
CO[C@H]1/C=C/O[C@@]2(C)Oc3c(C)c(O)c4c(c3C2=O)C2=NC3(CCN(CC(C)C)CC3)NC2=C(NC(=O)/C(C)=C\C=C\[C@H](C)[C@H](O)[C@@H](C)[C@@H](O)[C@@H](C)[C@H](OC(=O)N2CCN(CC3CCCCC3)CC2)[C@@H]1C)C4=O [Compound 9],0.0002,0.016,0.125,0.5,0.5,0.125,0.06
CO[C@H]1/C=C/O[C@@]2(C)Oc3c(C)c(O)c4c(c3C2=O)C2=NC3(CCN(CC(C)C)CC3)NC2=C(NC(=O)/C(C)=C\C=C\[C@H](C)[C@H](O)[C@@H](C)[C@@H](O)[C@@H](C)[C@H](OC(=O)N2CCN(C3CCCCC3)CC2)[C@@H]1C)C4=O [Compound 10],0.0002,0.002,0.06,0.06,0.25,0.06,0.06
CO[C@H]1/C=C/O[C@@]2(C)Oc3c(C)c(O)c4c(c3C2=O)C2=NC3(CCN(CC(C)C)CC3)NC2=C(NC(=O)/C(C)=C\C=C\[C@H](C)[C@H](O)[C@@H](C)[C@@H](O)[C@@H](C)[C@H](OC(=O)NC2CCN(Cc3ccccc3)CC2)[C@@H]1C)C4=O [Compound 14],0.0005,0.008,0.25,0.004,0.125,0.25,0.25
